Measured values published in US20260248784A1, “BTK Degrader and Use Thereof” (JIANGSU VCARE PHARMATECH CO., LTD., priority 2023, published 2026).

Key:
[1] = PK test in mice; format: in vivo
Procedure: Mice were weighed and dosed, and about 50 μL of whole blood was collected from the orbital venous plexus at 5 min, 0.25 h, 0.5 h, 1 h, 2 h, 4 h, 6 h, 8 h, and 24 h after administration, using EDTA-K2 as anticoagulant. The blood samples were centrifuged at 4000 rpm for 10 min at 4° C., and 20 μL of the supernatant plasma sample was taken into an EP tube and immediately stored in a −80° C. refrigerator until analysis. 10 μL of the plasma sample was transferred to a 96-well plate and 250 μL of acetonitrile (containing internal standard) was added to precipitate proteins. The samples were centrifuged at 4000 rpm/min for 20 min in a 4° C. centrifuge. The supernatant was transferred and injected into LC MS/MS to detect the drug concentration. The data were processed by Thermo LC Quan software, and the standard curve was established using the internal standard method, with the theoretical standard curve concentration as the abscissa and the peak area ratio as the ordinate (test compound peak area/internal standard peak area). Sample concentrations were calculated using the standard curve. The pharmacokinetic parameters were calculated using WinNonlin 8.2 software.

[2] = system: mino cells; assay: Activity test in Mino cells (CCK8 proliferation inhibition); format: cell-based; conditions: Homo sapiens, 72 h, 3 days, read-out: Cell inhibition IC50
Procedure: Cell culture: mino cells (culture conditions: RPMI1640 medium+15% FBS, 37° C., 5% CO2). Cell plating: The cells subcultured into the logarithmic growth phase were collected and transferred into a centrifuge tube, and centrifuged at 800 rpm for 5 min. The cells were resuspended in complete medium and counted. The cells were diluted and adjusted to a final concentration of 200000 cells/mL. The cells were then seeded into a 96-well plate with 100 μL per well. Cell administration: Each group of drug solutions was added into the 96-well plate, 100 μL per well, n=3 for each drug concentration. Meanwhile, negative wells (n=6) and blank wells (n=3) were set up. The 96-well plate was incubated in the incubator for further 3 days. CCK8 reagent was added to the 96-well plate, 20 μL per well, and then the plate was placed in the incubator for further 4 h. The absorbance of the solution was measured at a wavelength of 450 nm using an enzyme reader. The proliferation inhibition rate was calculated and the half inhibitory concentration IC50 value was calculated.

[3] = system: REC-1 (BTK C481S) cell xenograft; assay: Activity test in REC-1 (BTK C481S) cell xenograft model; format: in vivo, BALB/c-Nude mice; conditions: REC-1 (BTK C481S) xenograft; for Tumor weight: Mean ± SEM
Procedure: REC-1 (BTK C481S) cell culture (culture conditions: RPMI1640 medium+10% FBS, 37° C., 5% CO2). The cells subcultured into the logarithmic growth phase were collected and transferred into a centrifuge tube, and centrifuged at 1300 rpm for 3 min. On the day of inoculation, the cell density was adjusted to 5*10^7 cells/mL.
Cell inoculation: The inoculation site was selected at the right shoulder blade of the experimental animal, and the inoculation density was 5*10^6 cells+matrix gel/200 μL/animal.
Experimental animals: BALB/c-Nude, female, 6-8 W.
Grouped administration: When the average tumor volume reached 80-120 mm^3, the animals were randomly grouped according to tumor volume, with the coefficient of variation (CV) of tumor volumes not exceeding ⅓ of the mean volume. The day of grouping was defined as D0, and the administration began on the day of grouping. The body weight of the mice was measured before administration, and the administration was based on the body weight on that day.
Experimental observation and data collection: After cell inoculation, the effect of the tumor on the normal behavior of the animals was routinely monitored every week. Specific contents include the activity, food and water intake, weight gain or loss, eyes, fur and other abnormalities of the experimental animals. After the start of administration, the mice were weighed and dosed daily, and tumor volume was measured twice a week. The tumor volume was calculated as follows: tumor volume (mm^3)=0.52×tumor long diameter (mm)×tumor short diameter (mm)^2. At the end of the experiment, the following indicators were analyzed: tumor growth curve, mouse body weight curve, tumor weight, uniform photography of the excised tumors arranged according to groups, and calculation of tumor volume inhibition rate (TGI).
TGITV (Relative tumor volume inhibition rate) calculation formula:
[formula] • Vnt: Tumor volume of the mouse numbered n on day t; • Vn0: Tumor volume of the mouse numbered n on day 0; • RTVn: Relative tumor volume of the mouse numbered n on day t; • mean RTVtreat: RTV mean of the administration group; • mean RTVvehicle: RTV mean of the Vehicle group; • The experimental results such as tumor volume and mouse body weight of each group of animals are expressed as mean±standard error of the mean (Mean±SEM). T test was used for comparison between the two groups. One-way ANOVA was used for comparisons among three or more groups.

[4] = system: Mino cell xenograft; assay: Activity test in Mino cell xenograft model; format: in vivo, NOD SCID mice; conditions: 30 mg/kg

Question: What does the source list for COc1ccc(F)cc1C(=O)NCc1ccc(-c2nn(-c3ccc(N4CCN(CC5CCN(c6ccc(N7CCC(=O)NC7=O)c(C)c6)CC5)CC4)nc3)c3ncnc(N)c23)cc1 [Compound I-2, N-(4-(4-amino-1-(6-(4-((1-(4-(2,4-dioxotetrahydropyrimidin-1(2H)-yl)-3-methylphenyl)piperidin-4-yl)methyl)piperazin-1-yl)pyridin-3-yl)-1H-pyrazolo[3,4-d]pyrimidin-3-yl)benzyl)-5-fluoro-2-methoxybenzamide]?
Answer: Bioavialibility ([1]; PO 20 mg/kg vs IV 5 mg/kg): 51.8%; AUC(0-inf) ([1]; mouse, IV 5 mg/kg, plasma): 44500 ± 4610 ng·h/mL; AUC(0-t) ([1]; mouse, IV 5 mg/kg, plasma): 42800 ± 5760 ng·h/mL; MRT ([1]; mouse, IV 5 mg/kg, plasma): 5.25 ± 0.17 h; half-life ([1]; mouse, IV 5 mg/kg, plasma): 5.35 ± 1.61 h; AUC(0-inf) ([1]; mouse, PO 20 mg/kg, plasma): 92200 ± 33200 ng·h/mL; AUC(0-t) ([1]; mouse, PO 20 mg/kg, plasma): 83500 ± 22200 ng·h/mL; Cmax ([1]; mouse, PO 20 mg/kg, plasma): 8950 ± 339 ng/mL; MRT ([1]; mouse, PO 20 mg/kg, plasma): 6.46 ± 1.4 h; half-life ([1]; mouse, PO 20 mg/kg, plasma): 6.32 ± 3.49 h; IC50 [2]: 14 nM; T/C (Tweight/Cweight) ([3]; 15 mg/kg): 11.93%; Tumor weight ([3]; 15 mg/kg): 0.345 ± 0.082 g; T/C (Tweight/Cweight) ([3]; 30 mg/kg): 12.76%; Tumor weight ([3]; 30 mg/kg): 0.369 ± 0.043 g; TGITV (Relative tumor volume inhibition rate) [4]: 80.75%; Tumor volume ([4]; end of experiment, Mean ± SD): 955.81 ± 343.68 mm^3
